Laboratory results from patent US12532886B2, “Method of killing microbes using C3-C5 n-alkyl-gamma-butyrolactams and antimicrobial compositions containing same” (Virox Technologies Inc., priority 2018, dated 2026).

System: M. smegmatis
Experiment: ASTM E2197-02 test method, without soil load, against mycobacteria
Format: cell-based
Description: Solutions A, B and AA were prepared to test the antimicrobial activity of N-alkyl-gamma-butyrolactam, specifically N-butyl-gamma-butyrolactam and N-octyl-gamma-butyrolactam. These solutions were tested using the ASTM E2197-02 test method (5-minute contact time or 75 second contact time) without soil load, against hard-to-kill mycobacteria (M. smegmatis).
Solution B was also tested using ASTM E2197-02 test method (75 second contact time), without soil load, against mycobacteria (M. smegmatis) and achieved a log10 reduction of 0.11 (shown in the last row of Table 1.0).
Additional solutions were prepared to assess the antimicrobial activity of N-alkyl-gamma-butyrolactam, specifically N-butyl-gamma-butyrolactam, when combined with other antimicrobial agents in aqueous solution. These solutions are summarized in Tables 2.0, 2.1, and 2.2 below and tested using ASTM E2197-02 test method (75 second contact time), without soil load, against mycobacteria (M. smegmatis).

## CCCCN1CCCC1=O [N-butyl-gamma-butyrolactam]
  Antimicrobial activity against M. smegmatis, 5 minutes contact time: possesses antimicrobial activity

## CCCCCCCCN1CCCC1=O [N-octyl-gamma-butyrolactam]
  Antimicrobial activity against M. smegmatis, 5 minutes contact time: no antimicrobial activity
